From patent US20100248321A1, “SURFACTANT AMENDMENTS FOR THE STIMULATION OF BIOGENIC GAS GENERATION IN DEPOSITS OF CARBONACEOUS MATERIALS” (LUCA Technologies, Inc., priority 2009, published 2010)

Assays:
[1] = tested on: coal samples from the Powder River Basin in Wyoming; test: biogenic methane generation from coal samples after surfactant amendment; design: species or system microbial consortia present in coal and associated waters; conditions: after more than 100 days; headspace methane by gas chromatograph; surfactants tested at 0.05 to 0.5 g/L; 2.5 gram coal, 15 mL formation water
Method: (§1) Experiments were conducted to compare biogenic methane generation from coal samples after introducing an amendment of a surfactant. For each experiment, methane generation from coal samples from the Powder River Basin in Wyoming and shale samples from the Antrim Shale in Michigan was periodically measured over the course of more than 100 days. Each 2.5 gram coal sample or 5 g shale sample was placed in a 30 ml serum bottle with 15 mL of water that was also taken from the formation. The coal or shale and formation water were placed in the serum bottle while working in an anaerobic glove bag. The headspace in the bottle above the sample was flushed with a mixture of N2 and CO2 (95/5).
(§2) Amendments were then added to the samples. Surfactants were tested at concentrations of 0.05 to 0.5 g/L. Surfactants were tested alone and in combination with other amendments, including proteins (e.g., yeast extract), phosphate and acetate. The samples were then sealed, removed from the glove bag, and stored at a temperature close to the in situ temperature for the coal or shale samples over the course of the experiments.
(§3) The methane levels in the headspace above the samples was periodically measured and recorded. The methane was measured by running samples of the headspace gases through a gas chromatograph equipped with a thermal conductivity detector.

[2] = tested on: shale samples from the Antrim Shale in Michigan; test: biogenic methane generation from shale samples after surfactant amendment; design: species or system microbial consortia present in shale and associated waters; conditions: after more than 100 days; headspace methane by gas chromatograph; surfactants tested at 0.05 to 0.5 g/L; 5 g shale, 15 mL formation water
Method: as §1, §2, §3

Molecule | methane production in coal containing bottles [1] | methane production in shale containing bottles [2]
Benzalkonium chloride | highest levels of methane production | 
CCCCCCCC/C=C\CCCCCCCC(=O)N(C)CCS(=O)(=O)[O-].[Na+] [Geropon T-77] | highest levels of methane production | 
CCCCOCCO [2-butoxyethanol] | highest levels of methane production | highest levels of methane production
